Measured values from PMC12389735, “Polyoxypregnane Aryl Esters Prepared from Metaplexis japonica (Thunb.) Makino and Their Role in Reversing Multidrug Resistance in HepG2/Dox Cells” (Pharmaceuticals, 2025).
Each block holds one molecule with its values, some of them ahead of it.

Assays:
HepG2/Dox cells [1] = assay: Annexin V/PI apoptosis by flow cytometry in HepG2/Dox cells; format: cell-based, Human; details: 24 h; for Apoptosis rates of HepG2/Dox cells: 10 μM in combination with 500 nM paclitaxel, vs PTX alone
Procedure: Cells were then incubated for another 24 h in 2 mL fresh medium containing the test samples. The medium and cells (digested by EDTA-free trypsin) were collected and centrifuged (1000 rpm, 5 min). The cells were then suspended in PBS and stained using the Annexin V/PI kit by following the procedures provided with the kit, and the apoptosis rate of cells with different treatments was analyzed using flow cytometry.

caspase 9 = assay: Western blotting of caspase 9 expression in HepG2/Dox cells; format: cell-based, Human
Procedure: (§1) In 100 mm culture dishes, 1 × 10^6 cells in 10 mL medium were seeded and incubated for 24 h, and then incubated with the test sample in 10 mL fresh medium for another 24 h. Total proteins were extracted using RIPA cell lysis buffer containing PMSF while protein content was determined using the BCA kit. An equal amount of the protein sample was subjected to SDS-PAGE for separation and transferred to PVDF membranes. The membranes were blocked in 5% defat milk at RT for 1 h, and then incubated with the primary antibody of the protein of interest (P-gp, caspase 8 or caspase 9) or GAPDH (internal standard) at 4 °C overnight, and then with the secondary antibody at RT for 1 h. Protein bands were detected under the chemiluminescence scanner, while Image J was employed to analyze the gray value of the protein bands.

[2] = Bidirectional transport assay on Caco-2 cell monolayers; details: human; for Papp B→A at 2 h: Caco-2, pH 7.4; for Papp A→B at 2 h, 2 μM: Caco-2, pH 7.4, Apparent permeability coefficient (Papp) from AP to BL; for Papp A→B at 2 h: Caco-2, pH 7.4, A→B Transport Papp, pH 7.40; for Papp A→B at 2 h / recovery at 2 h: compound 1, 1a 2 μM, digoxin 10 μM
Caco-2 cell monolayers = assay: as above; details: from ER values of less than 2
HepG2/Dox cells [3] = assay: CCK-8 cell viability / reversal of P-gp-mediated MDR in HepG2/Dox cells; format: cell-based, Human; details: for Cytotoxicity to HepG2/Dox cells (viability): compound alone at 5 or 10 μM; for Cytotoxicity to HepG2/Dox cells (viability) / IC50: 48 h; for Reversal of resistance of HepG2/Dox cells to paclitaxel and vinblastine: non-cytotoxic concentrations (10 μM); for IC50: Homo sapiens, HepG2/Dox, anticancer drug alone, CCK-8, read-out: IC50 ± SD HepG2/Dox; for Fsen (fold increase in sensitivity): drug alone (reference); for Fres (fold of resistance): drug alone, IC50 in HepG2/Dox / IC50 in HepG2
P-gp [4] = biological target: T1, P-gp (Homo sapiens, UniProt P08183); assay: Rhodamine 123 efflux assay for P-gp function in HepG2/Dox cells; format: cell-based; details: 10 μM, 5 μM Rh-123, 40 min; vs Rh-123 alone
T1 construct: Doxorubicin-induced P-gp overexpression HepG2/Dox subline was a gift from Prof; Fong; endogenous in cells; host or cells: HepG2/Dox (doxorubicin-induced P-gp-overexpressing subline of HepG2)
Procedure: After removal of the medium via centrifugation, the cells were washed with ice-cold PBS twice, resuspended in 300 μL ice-cold PBS, and transferred into flow cytometer tubes. Cellular fluorescence intensity was analyzed immediately using flow cytometry.

Human ABCB1 = biological target: T2, Human ABCB1 (Homo sapiens, UniProt P08183); assay: Surface plasmon resonance binding to full-length ABCB1 (Biacore); details: SPR; for Kd: CM5 chip, read-out: KD (equilibrium dissociation constant)
T2 construct: Flag; purchased MedChemExpress HY-P703175; host or cells: HEK293
Procedure: The human recombinant ABCB1 full-length protein (HEK293, Flag) (MedChemExpress, Monmouth Junction, NJ, USA; #HY-P703175) was coupled onto a CM5 sensor chip (Cytiva, Marlborough, MA, USA; #BR-1005-30) via carboxyl groups on the dextran. After incubation, a series of concentrations of compound 1 or 1a flowed through the protein–CM5 system. Binding was tested and analyzed using a Biacore K8 instrument (GE Healthcare, Chicago, IL, USA) and Biacore Insight evaluation software (https://www.cytivalifesciences.com/en/us, accessed on 5 August 2025) (Cytiva, Marlborough, MA, USA).

P-gp [5] = assay: Western blotting of P-gp expression in HepG2/Dox cells; format: cell-based, Human; details: alone or in combination with paclitaxel
Procedure: as §1

caspase 8 = assay: Western blotting of caspase 8 expression in HepG2/Dox cells; format: cell-based, Human
Procedure: as §1

[6] = 10 μM combined with paclitaxel 0.5 μM
[7] = alone: paclitaxel 0.5 μM, compound 1 or 1a 10 μM
[8] = Caco-2, pH 7.4, A→B Transport Solution Recovery %
[9] = Caco-2, pH 7.4, B→A Transport Solution Recovery %

T2 sequence (P08183 whole entry): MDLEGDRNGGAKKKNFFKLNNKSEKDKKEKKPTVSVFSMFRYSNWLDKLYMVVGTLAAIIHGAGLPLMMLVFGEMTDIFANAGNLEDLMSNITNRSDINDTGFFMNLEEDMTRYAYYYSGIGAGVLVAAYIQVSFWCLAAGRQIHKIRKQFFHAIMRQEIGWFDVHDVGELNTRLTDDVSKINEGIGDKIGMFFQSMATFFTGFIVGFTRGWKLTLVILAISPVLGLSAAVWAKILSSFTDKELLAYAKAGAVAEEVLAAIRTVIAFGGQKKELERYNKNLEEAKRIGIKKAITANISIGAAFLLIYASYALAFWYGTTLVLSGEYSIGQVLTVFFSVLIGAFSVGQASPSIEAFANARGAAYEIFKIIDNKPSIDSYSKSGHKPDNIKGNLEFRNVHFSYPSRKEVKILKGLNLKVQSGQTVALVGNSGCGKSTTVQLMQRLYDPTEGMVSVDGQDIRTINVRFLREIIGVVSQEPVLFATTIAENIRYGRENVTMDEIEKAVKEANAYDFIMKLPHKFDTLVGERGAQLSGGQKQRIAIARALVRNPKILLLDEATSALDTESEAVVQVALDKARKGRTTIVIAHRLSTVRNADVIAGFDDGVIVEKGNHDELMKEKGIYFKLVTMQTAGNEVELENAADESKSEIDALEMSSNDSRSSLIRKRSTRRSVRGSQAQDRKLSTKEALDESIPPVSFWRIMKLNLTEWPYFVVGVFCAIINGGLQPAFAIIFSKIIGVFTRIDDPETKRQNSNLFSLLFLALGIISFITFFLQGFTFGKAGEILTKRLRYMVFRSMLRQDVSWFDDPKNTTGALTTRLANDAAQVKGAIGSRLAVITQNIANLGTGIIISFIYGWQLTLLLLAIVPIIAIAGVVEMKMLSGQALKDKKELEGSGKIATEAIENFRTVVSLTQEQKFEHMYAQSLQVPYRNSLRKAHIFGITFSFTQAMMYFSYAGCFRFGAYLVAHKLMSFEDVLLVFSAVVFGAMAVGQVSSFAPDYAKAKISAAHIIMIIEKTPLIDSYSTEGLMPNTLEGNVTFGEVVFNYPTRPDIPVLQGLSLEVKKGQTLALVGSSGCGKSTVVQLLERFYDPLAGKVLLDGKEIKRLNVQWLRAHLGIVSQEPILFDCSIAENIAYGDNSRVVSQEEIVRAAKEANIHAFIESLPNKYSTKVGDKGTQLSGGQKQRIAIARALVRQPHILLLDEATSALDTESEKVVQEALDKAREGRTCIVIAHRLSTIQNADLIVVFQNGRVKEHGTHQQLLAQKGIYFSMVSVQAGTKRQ
T1 sequence (P08183 whole entry): as above

SMILES: CC(O)C1(O)CCC2(O)C3CCC4CC(O)CCC4(C)C3CC(OC(=O)C=Cc3ccccc3)C12C [Compound 1, 3β,12β,14β,17β,20(S)-pentahydroxy-5α-pregnan-12β-O-(E)-cinnamate]
- Apoptosis rates of HepG2/Dox cells (HepG2/Dox cells [1]): significantly increased
- Expression of caspase 9 (caspase 9; [6]): significantly upregulated
- Expression of caspase 9 (caspase 9; [7]): did not change
- Papp B→A at 2 h [2]: 7.71 ± 0.61 ×10⁻⁶ cm/s
- Papp A→B at 2 h, 2 μM [2]: 9.28 ×10⁻⁶ cm/s
- Papp A→B at 2 h [2]: 9.28 ± 0.88 ×10⁻⁶ cm/s
- recovery at 2 h [2, 8]: 44.6 ± 2.3%
- recovery at 2 h [2, 9]: 50.4 ± 1.7%
- P-gp substrate status (Caco-2 cell monolayers): not P-gp substrates
- Cytotoxicity to HepG2/Dox cells (viability) (HepG2/Dox cells [3]): non-cytotoxic
- Fres to doxorubicin (HepG2/Dox cells [3]; doxorubicin + modulator 5 µM): 13.7
- Fsen to doxorubicin (HepG2/Dox cells [3]; doxorubicin + modulator 5 µM): 2.6
- Fres to doxorubicin (HepG2/Dox cells [3]; doxorubicin + modulator 10 µM): 5.0
- Fsen to doxorubicin (reversal fold) (HepG2/Dox cells [3]; doxorubicin + modulator 10 µM): 7.1
- Reversal of resistance of HepG2/Dox cells to paclitaxel and vinblastine (HepG2/Dox cells [3]): completely reversed
- Fres to paclitaxel (HepG2/Dox cells [3]; paclitaxel + modulator 5 µM): 3.9
- Fsen to paclitaxel (HepG2/Dox cells [3]; paclitaxel + modulator 5 µM): 33.6
- Fres to paclitaxel (HepG2/Dox cells [3]; paclitaxel + modulator 10 µM): 1.1
- Fsen to paclitaxel (reversal fold) (HepG2/Dox cells [3]; paclitaxel + modulator 10 µM): 118.5
- Fres to vinblastine (HepG2/Dox cells [3]; vinblastine + modulator 5 µM): 1.5
- Fsen to vinblastine (HepG2/Dox cells [3]; vinblastine + modulator 5 µM): 91.5
- Fres to vinblastine (HepG2/Dox cells [3]; vinblastine + modulator 10 µM): 0.7
- Fsen to vinblastine (reversal fold) (HepG2/Dox cells [3]; vinblastine + modulator 10 µM): 198.3
- Fluorescence intensity of Rh-123 in cells (inhibited efflux) (P-gp [4]): significantly increased
- Ka (association rate constant) (Human ABCB1): 65800 M⁻¹ s⁻¹
- Kd (dissociation rate constant) (Human ABCB1): 0.364 s⁻¹
- Kd (Human ABCB1): 5.53 µM
- Ka (association rate constant) (Human ABCB1; listed as compound 1): > 10^4 M^−1s^−1
- Kd (dissociation rate constant) (Human ABCB1; listed as compound 1): > 10^−1 s^−1
- Expression level of cellular P-gp (P-gp [5]): did not influence
- Expression of caspase 8 (caspase 8; [6]): did not change
- Expression of caspase 8 (caspase 8; [7]): did not change

SMILES: CC(O)C1(O)CCC2(O)C3CCC4CC(OC(=O)c5cccnc5)CCC4(C)C3CC(OC(=O)C=Cc3ccccc3)C12C [Compound 1a, 3β,12β,14β,17β,20(S)-pentahydroxy-5α-pregnan-3β-O-nicotinate-12β-O-(E)-cinnamate]
- Apoptosis rates of HepG2/Dox cells (HepG2/Dox cells [1]): significantly increased
- Expression of caspase 9 (caspase 9; [6]): significantly upregulated
- Expression of caspase 9 (caspase 9; [7]): did not change
- Papp B→A at 2 h [2]: 0.24 ± 0.02 ×10⁻⁶ cm/s
- Papp A→B at 2 h, 2 μM [2]: 0.27 ×10⁻⁶ cm/s
- Papp A→B at 2 h [2]: 0.27 ± 0.03 ×10⁻⁶ cm/s
- recovery at 2 h [2, 8]: 5.3 ± 0.5%
- recovery at 2 h [2, 9]: 12.2 ± 0.7%
- P-gp substrate status (Caco-2 cell monolayers): not P-gp substrates
- Cytotoxicity to HepG2/Dox cells (viability) (HepG2/Dox cells [3]): non-cytotoxic
- Fres to doxorubicin (HepG2/Dox cells [3]; doxorubicin + modulator 5 µM): 1.9
- Fsen to doxorubicin (HepG2/Dox cells [3]; doxorubicin + modulator 5 µM): 18.8
- Fres to doxorubicin (HepG2/Dox cells [3]; doxorubicin + modulator 10 µM): 4.1
- Fsen to doxorubicin (reversal fold) (HepG2/Dox cells [3]; doxorubicin + modulator 10 µM): 18.8
- Fsen to doxorubicin (reversal fold) (HepG2/Dox cells [3]; doxorubicin + modulator 10 µM, listed as compound 1a): 8.6
- Reversal of resistance of HepG2/Dox cells to paclitaxel and vinblastine (HepG2/Dox cells [3]): completely reversed
- Fres to paclitaxel (HepG2/Dox cells [3]; paclitaxel + modulator 5 µM): 0.8
- Fsen to paclitaxel (HepG2/Dox cells [3]; paclitaxel + modulator 5 µM): 155.0
- Fres to paclitaxel (HepG2/Dox cells [3]; paclitaxel + modulator 10 µM): 0.4
- Fsen to paclitaxel (reversal fold) (HepG2/Dox cells [3]; paclitaxel + modulator 10 µM): 335.8
- Fres to vinblastine (HepG2/Dox cells [3]; vinblastine + modulator 5 µM): 1.8
- Fsen to vinblastine (HepG2/Dox cells [3]; vinblastine + modulator 5 µM): 79.3
- Fres to vinblastine (HepG2/Dox cells [3]; vinblastine + modulator 10 µM): 1.0
- Fsen to vinblastine (reversal fold) (HepG2/Dox cells [3]; vinblastine + modulator 10 µM): 140
- Fluorescence intensity of Rh-123 in cells (inhibited efflux) (P-gp [4]): significantly increased
- Ka (association rate constant) (Human ABCB1): 41600 M⁻¹ s⁻¹
- Kd (dissociation rate constant) (Human ABCB1): 0.155 s⁻¹
- Kd (Human ABCB1): 3.72 µM
- Ka (association rate constant) (Human ABCB1; listed as compound 1a): > 10^4 M^−1s^−1
- koff (Human ABCB1; read-out: Kd (dissociation rate constant)): > 0.1 s⁻¹
- Expression level of cellular P-gp (P-gp [5]): did not influence
- Expression of caspase 8 (caspase 8; [6]): did not change
- Expression of caspase 8 (caspase 8; [7]): did not change

- Papp B→A at 2 h [2]: 22.3 ± 1.02 ×10⁻⁶ cm/s
- Papp A→B at 2 h [2]: 0.12 ± 0.02 ×10⁻⁶ cm/s
- recovery at 2 h [2, 8]: 97.9 ± 8.1%
- recovery at 2 h [2, 9]: 94.4 ± 1.9%
SMILES: C[C@H]1O[C@@H](O[C@H]2[C@@H](O)C[C@H](O[C@H]3[C@@H](O)C[C@H](O[C@H]4CC[C@@]5(C)[C@H](CC[C@@H]6[C@@H]5C[C@@H](O)[C@]5(C)[C@@H](C7=CC(=O)OC7)CC[C@]65O)C4)O[C@@H]3C)O[C@@H]2C)C[C@H](O)[C@@H]1O [Digoxin, reference compound]

- IC50 (HepG2/Dox cells [3]): 6.03 ± 1.15 µM
SMILES: COc1cccc2c1C(=O)c1c(O)c3c(c(O)c1C2=O)C[C@@](O)(C(=O)CO)C[C@@H]3O[C@H]1C[C@H](N)[C@H](O)[C@H](C)O1 [Doxorubicin, reference compound]
- Fsen (fold increase in sensitivity) (HepG2/Dox cells [3]): 1
- Fres (fold of resistance) (HepG2/Dox cells [3]): 35.5

- IC50 (HepG2/Dox cells [3]): 4.03 ± 0.06 µM
SMILES: CC(=O)O[C@H]1C(=O)[C@@]2(C)[C@H]([C@H](OC(=O)c3ccccc3)[C@]3(O)C[C@H](OC(=O)[C@H](O)[C@@H](NC(=O)c4ccccc4)c4ccccc4)C(C)=C1C3(C)C)[C@]1(OC(C)=O)CO[C@@H]1C[C@@H]2O [Paclitaxel, reference compound]
- Cell apoptosis in HepG2/Dox cells (HepG2/Dox cells [1]; 500 nM alone): did not induce cell apoptosis
- Expression of caspase 9 (caspase 9; [7]): did not change
- Expression of caspase 8 (caspase 8; [7]): did not change

SMILES: COc1ccc(CCN(C)CCCC(C#N)(c2ccc(OC)c(OC)c2)C(C)C)cc1OC (stereo not drawn) [VRP, Verapamil, reference compound]
- Apoptosis rates of HepG2/Dox cells (HepG2/Dox cells [1]): significantly increased
- Fres to doxorubicin (HepG2/Dox cells [3]; doxorubicin + modulator 10 µM): 1.1
- Fres to paclitaxel (HepG2/Dox cells [3]; paclitaxel + modulator 10 µM): 1.3
- Fres to vinblastine (HepG2/Dox cells [3]; vinblastine + modulator 10 µM): 2.1

- IC50 (HepG2/Dox cells [3]): 2.38 ± 0.62 µM
SMILES: CC[C@]1(O)C[C@@H]2CN(CCc3c([nH]c4ccccc34)[C@@](C(=O)OC)(c3cc4c(cc3OC)N(C)[C@H]3[C@@](O)(C(=O)OC)[C@H](OC(C)=O)[C@]5(CC)C=CCN6CC[C@]43[C@@H]65)C2)C1 [Vinblastine, reference compound]
- Fsen (fold increase in sensitivity) (HepG2/Dox cells [3]): 1
- Fres (fold of resistance) (HepG2/Dox cells [3]): 140.0
- Fres (fold of resistance) (HepG2/Dox cells [3]; listed as vinblastine): 140
